For data set [1] the following is noted: Crystal; DSC.
A short description of data set [2]: Molar enthalpy of transition or fusion. The note with it: Crystal; DSC.

Structures are written as SMILES. Numbers after ± are expanded uncertainties.

As to `O=C1CCCCCCCCCCCN1` [2-azacyclotridecanone], the Triple point temperature in data set [1] is listed as 425.95 ± 0.93 K. In data set [2], the “Molar enthalpy of transition or fusion” value amounted to 3.9 ± 0.12 kcal/mol.

The values are drawn from the NIST ThermoML archive (doi:10.1021/acs.jced.8b01193).
